Assay results from US12629378B2, “Treatment of infantile hemangioma” (Arkayli Biopharma Inc., priority 2019, dated 2026).
Converted amounts (≈) assume the structure as drawn.

Legend:
[1] = cited from earlier work; for Half-Life: in vivo; for distribution half-life: delivered intravenously
[2] = cited from earlier work
[3] = Esmolol solubility in various excipients; type: physicochemical
Source text: Knowing the solubility of a drug in different excipients and chemical enhancers is important in optimizing the saturation solubility of the drug in topical and transdermal formulations. Here below is a table (Table 1) showing the solubility of esmolol in several excipients and chemical enhancers. The solubility of Esmolol was higher in hydrophilic excipients and lower in the more lipophilic excipients. Several of these compounds were used to prepare the formulations in Example 2, such as the co-enhancing system of oleyl alcohol and propylene glycol.

[4] = cited from earlier work; remark: listed apart in the source
[5] = adults; cited from earlier work
[6] = drop (0.05 mL) of timolol 0.5% solution to the eye of an adult; cited from earlier work
[7] = children with pediatric glaucoma, intraocular; cited from earlier work
[8] = system: beta adrenergic receptors; details: times more potent; cited from earlier work
[9] = children, after an oral dose; cited from earlier work
[10] = system: beta adrenergic receptors; details: fraction of the potency of Esmolol; cited from earlier work

**Q.** Which Half-Life [1] does the source give for `CC(C)(C)NC[C@H](O)COc1ccccc1C1CCCC1` [Penbutolol] here?
**A.** Its Half-Life is 20 h.

**Q.** And the LogP [2]?
**A.** The LogP was 4.15.

**Q.** Which results are given for `COC(=O)CCc1ccc(OCC(O)CNC(C)C)cc1` (stereo not shown) [Esmolol, methyl 3-[4-[2-hydroxy-3-(propan-2-ylamino)propoxy]phenyl]propanoate]?
**A.** Sat. Conc. ([3]; Castor Oil (CO)): 23.4 mg/mL; Sat. Conc. ([3]; Cotton seed oil (CSO)): 101.9 mg/mL; Sat. Conc. ([3]; DMSO): 592.1 mg/mL; Sat. Conc. ([3]; Dipropylene Glycol): 257.6 mg/mL; Sat. Conc. ([3]; Ethanol): 310.4 mg/mL; Sat. Conc. ([3]; Glyceryl monooleate (GMO)): 157.3 mg/mL; Sat. Conc. ([3]; Isopropyl myristate (IPM)): 196.2 mg/mL; Sat. Conc. ([3]; Lauroglycol FCC (LG)): 122.2 mg/mL; Sat. Conc. ([3]; Oleic acid (OA)): 56.9 mg/mL; Sat. Conc. ([3]; Oleyl Alcohol): 112.2 mg/mL; Sat. Conc. ([3]; Olive Oil (OO)): 58.1 mg/mL; Sat. Conc. ([3]; PEG-400): 248.6 mg/mL; Sat. Conc. ([3]; Propylene Glycol): 450.7 mg/mL; Sat. Conc. ([3]; Sesame oil (SO)): 56.6 mg/mL; Sat. Conc. ([3]; Transcutol P): 344.5 mg/mL; solubility thermodynamic ([3]; water, read-out: Sat. Conc.): 704 mg/mL (≈ 2380 mM); distribution half-life [1]: about 2 minutes; Half-Life [1]: 0.15 h

**Q.** What does the source list for `CC(C)(C)NC[C@H](O)COc1nsnc1N1CCOCC1` [Timolol]?
**A.** Half-Life [1]: 2.5 to 5 h; plasma samples in which timolol was detected ([4]; 86/92 samples, applied to skin over IH): 93%; plasma level normalized for dose, mean ([4]; applied to skin over IH): 24.1 ± 62.7 ng/mL/mg; plasma level normalized for dose, median ([4]; applied to skin over IH): 3 ng/mL/mg; plasma level normalized for dose, range ([4]; applied to skin over IH): 0.06 to 424 ng/mL/mg; plasma level, median ([4]; applied to skin over IH): 0.98 ng/mL; plasma level, range ([4]; applied to skin over IH): 0.03 to 106 ng/mL; samples with plasma levels >0.2 ng/mL ([4]; applied to skin over IH): 80%; samples between 0.020-0.2 ng/mL ([4]; of 86 samples): 12/86; subjects with plasma levels ≥10 ng/mL ([4]; similar to intravenous administration): Ten; plasma concentration demonstrated to have measurable systemic beta-blocking activity [5]: 0.2 ng/mL; fraction of each drop systemically absorbed through the ocular mucosa [6]: approximately 80%; systemic adverse effects (bradycardia, hypoglycemia, bronchial hyperreactivity), share of children [7]: 3-4%; potency compared with propranolol [8]: 4-10 times; LogP [2]: 1.4

**Q.** With `CC(C)(C)NCC(O)COc1cccc2c1CCC(=O)N2` (stereo not shown) [Corteolol] as the compound, how does the Half-Life [1] read?
**A.** Its Half-Life is 6 to 8 h.

**Q.** With `C=CCOc1ccccc1OCC(O)CNC(C)C` (stereo not shown) [Oxprenolol] as the compound, how does the Half-Life [1] read?
**A.** Its Half-Life is 1 to 2 h.

**Q.** And the LogP [2]?
**A.** The LogP was 2.1.

**Q.** Which Half-Life [1] does the source give for `CC(C)(C)NCC(O)COc1cccc2c1CC(O)C(O)C2` (stereo not shown) [Nadolol] here?
**A.** Its Half-Life is 14 to 25 h.

**Q.** What about the LogP [2] of the same compound?
**A.** Its LogP is 1.

**Q.** For `COCCc1ccc(OCC(O)CNC(C)C)cc1` (stereo not shown) [Metoprolol], which Half-Life [1] is on record?
**A.** Its Half-Life is 3 to 7 h.

**Q.** For `CC(C)NCC(O)COc1cccc2ccccc12` (stereo not shown) [Propranolol], which Half-Life [1] is on record?
**A.** The Half-Life was 4 to 5 h.

**Q.** And the “time of peak effect on blood pressure and heart rate” value [9]?
**A.** The value was “around 2 hours”.

**Q.** For `CC(C)NCC(O)COc1cccc2[nH]ccc12` (stereo not shown) [Pindolol], which Half-Life [1] is on record?
**A.** The Half-Life was 3 to 4 h.

**Q.** What about the LogP [2] of the same compound?
**A.** The LogP was 1.75.

**Q.** What does the source list for `CC1(C)OC[C@@H](COC(=O)CCc2ccc(OC[C@@H](O)CNCCNC(=O)N3CCOCC3)cc2)O1` [Landiolol, [(4S)-2,2-dimethyl-1,3-dioxolan-4-yl]methyl 3-[4-[(2S)-2-hydroxy-3-[2-(morpholine-4-carbonylamino)ethylamino]propoxy]phenyl]propanoate]?
**A.** distribution half-life [1]: about 2 minutes; Half-Life [1]: 0.05 to 0.1 h; LogP [2]: 0.44

**Q.** With `CC(C)NCC(O)COc1ccc(CCC(=O)O)cc1` (stereo not shown) [inactive metabolite] as the compound, how does the “potency relative to Esmolol” value [10] read?
**A.** The value was 1/1500.
